Results as given in patent US9758524B2, “4-imidazopyridazin-1-yl-benzamides as Btk inhibitors” (Merck Sharp & Dohme B.V., priority 2011, dated 2017).
Like-named read-outs stand apart in the source and are kept apart here.

Experiments:
FynT enzyme = FynT enzyme (Homo sapiens (Human), UniProt P06241); experiment: FynT enzyme activity (IMAP fluorescence polarization assay); format: biochemical; details: 60 min pre-incubation, 0.2 μM ATP
In short: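 Human FynT pre-incubated with compounds 60 min at room temperature, then reacted 2 h at room temperature with fluorescein-labelled p34cdc2 peptide (100 nM final). Stopped with IMAP binding solution; fluorescence polarization read after 60 min. Activity as % of ±ATP control difference; EC50 by curve fitting.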

Btk enzyme (His-Btk) = Btk enzyme (His-Btk) (Homo sapiens (Human), UniProt Q06187); experiment: Btk enzyme activity (IMAP fluorescence polarization assay)
Sequence of Btk enzyme (His-Btk) (Q06187 whole entry): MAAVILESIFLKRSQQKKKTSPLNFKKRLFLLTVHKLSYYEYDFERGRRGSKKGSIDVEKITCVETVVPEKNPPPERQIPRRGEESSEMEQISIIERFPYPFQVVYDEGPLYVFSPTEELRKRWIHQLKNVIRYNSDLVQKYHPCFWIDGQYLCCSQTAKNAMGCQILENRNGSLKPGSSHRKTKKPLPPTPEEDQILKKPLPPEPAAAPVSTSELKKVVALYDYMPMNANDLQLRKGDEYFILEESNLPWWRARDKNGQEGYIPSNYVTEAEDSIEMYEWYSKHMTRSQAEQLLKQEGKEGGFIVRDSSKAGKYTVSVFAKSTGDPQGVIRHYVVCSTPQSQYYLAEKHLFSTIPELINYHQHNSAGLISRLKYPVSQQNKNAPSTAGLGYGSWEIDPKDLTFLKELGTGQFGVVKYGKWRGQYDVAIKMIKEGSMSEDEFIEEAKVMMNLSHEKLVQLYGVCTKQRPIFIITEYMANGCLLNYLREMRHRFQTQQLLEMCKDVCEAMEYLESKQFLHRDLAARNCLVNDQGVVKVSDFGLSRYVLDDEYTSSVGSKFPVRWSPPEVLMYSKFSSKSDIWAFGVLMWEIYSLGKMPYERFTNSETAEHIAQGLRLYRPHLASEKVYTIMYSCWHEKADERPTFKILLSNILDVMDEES

Lck enzyme = Lck enzyme (Homo sapiens (Human), UniProt P06239); experiment: Lck enzyme activity (IMAP fluorescence polarization assay); details: read-out: EC50 Lck activity values; IMAP, 60 min pre-incubation, 6 μM ATP; bin bound in μM
Sequence of Lck enzyme (P06239 whole entry): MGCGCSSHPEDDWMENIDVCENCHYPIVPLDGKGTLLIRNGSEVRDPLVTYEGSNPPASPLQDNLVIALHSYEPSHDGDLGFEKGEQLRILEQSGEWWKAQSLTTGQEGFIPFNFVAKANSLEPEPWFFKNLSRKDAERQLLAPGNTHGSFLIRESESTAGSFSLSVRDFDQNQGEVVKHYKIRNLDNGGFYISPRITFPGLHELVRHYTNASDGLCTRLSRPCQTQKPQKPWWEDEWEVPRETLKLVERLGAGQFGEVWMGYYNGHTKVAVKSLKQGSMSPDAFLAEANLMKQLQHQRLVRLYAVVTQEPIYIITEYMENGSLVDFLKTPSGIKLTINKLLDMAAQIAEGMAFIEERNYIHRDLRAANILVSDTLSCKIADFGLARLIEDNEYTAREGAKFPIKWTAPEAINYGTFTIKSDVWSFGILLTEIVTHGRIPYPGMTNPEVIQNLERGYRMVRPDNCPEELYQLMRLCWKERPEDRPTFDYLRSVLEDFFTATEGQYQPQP

Src enzyme = Src enzyme (Homo sapiens (Human), UniProt P12931); experiment: Src enzyme activity (IMAP fluorescence polarization assay); details: read-out: EC50 Src activity values; IMAP, 60 min pre-incubation, 4 μM ATP
Sequence of Src enzyme (P12931 whole entry, looked up): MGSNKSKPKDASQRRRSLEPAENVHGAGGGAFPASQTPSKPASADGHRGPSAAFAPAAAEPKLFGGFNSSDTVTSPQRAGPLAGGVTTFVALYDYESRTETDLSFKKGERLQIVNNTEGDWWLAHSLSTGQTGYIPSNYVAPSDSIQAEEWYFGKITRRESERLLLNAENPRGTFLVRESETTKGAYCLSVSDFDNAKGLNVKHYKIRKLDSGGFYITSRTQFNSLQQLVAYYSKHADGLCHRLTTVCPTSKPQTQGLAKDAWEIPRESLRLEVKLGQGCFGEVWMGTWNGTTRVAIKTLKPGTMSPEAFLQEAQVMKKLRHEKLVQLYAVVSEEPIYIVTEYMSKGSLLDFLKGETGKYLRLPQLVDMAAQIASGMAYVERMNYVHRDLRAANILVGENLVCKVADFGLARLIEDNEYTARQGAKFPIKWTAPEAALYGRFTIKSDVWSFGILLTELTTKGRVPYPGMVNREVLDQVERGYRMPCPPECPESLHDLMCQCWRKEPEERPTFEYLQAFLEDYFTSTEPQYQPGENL

Lyn enzyme = Lyn enzyme (Homo sapiens (Human), UniProt P07948); experiment: Lyn enzyme activity (IMAP fluorescence polarization assay); details: read-out: EC50 Lyn activity values, 60 min pre-incubation, 2 μM ATP, bin bound in μM
Sequence of Lyn enzyme (P07948 whole entry): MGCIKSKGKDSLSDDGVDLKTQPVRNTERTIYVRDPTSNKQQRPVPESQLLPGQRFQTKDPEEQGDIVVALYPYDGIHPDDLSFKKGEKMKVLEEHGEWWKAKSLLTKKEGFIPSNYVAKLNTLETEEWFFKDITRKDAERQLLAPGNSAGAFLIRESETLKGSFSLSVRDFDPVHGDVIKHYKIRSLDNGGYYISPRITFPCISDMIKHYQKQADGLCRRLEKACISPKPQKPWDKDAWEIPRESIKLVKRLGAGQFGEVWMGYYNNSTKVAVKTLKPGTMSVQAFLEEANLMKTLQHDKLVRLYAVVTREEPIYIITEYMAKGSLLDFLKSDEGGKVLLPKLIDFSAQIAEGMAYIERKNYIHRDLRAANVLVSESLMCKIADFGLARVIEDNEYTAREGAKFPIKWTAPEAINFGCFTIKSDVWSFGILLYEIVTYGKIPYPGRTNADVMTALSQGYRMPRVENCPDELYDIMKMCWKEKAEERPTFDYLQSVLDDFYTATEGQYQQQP

[1] = IMAP, 60 min pre-incubation, 5 μM ATP, bin bound in nM
[2] = read-out: EC50 Btk activity values, IMAP, 60 min pre-incubation, 5 μM ATP, bin bound in nM

Sequence of FynT enzyme (P06241 other isoform, or with tags, fused parts or gaps): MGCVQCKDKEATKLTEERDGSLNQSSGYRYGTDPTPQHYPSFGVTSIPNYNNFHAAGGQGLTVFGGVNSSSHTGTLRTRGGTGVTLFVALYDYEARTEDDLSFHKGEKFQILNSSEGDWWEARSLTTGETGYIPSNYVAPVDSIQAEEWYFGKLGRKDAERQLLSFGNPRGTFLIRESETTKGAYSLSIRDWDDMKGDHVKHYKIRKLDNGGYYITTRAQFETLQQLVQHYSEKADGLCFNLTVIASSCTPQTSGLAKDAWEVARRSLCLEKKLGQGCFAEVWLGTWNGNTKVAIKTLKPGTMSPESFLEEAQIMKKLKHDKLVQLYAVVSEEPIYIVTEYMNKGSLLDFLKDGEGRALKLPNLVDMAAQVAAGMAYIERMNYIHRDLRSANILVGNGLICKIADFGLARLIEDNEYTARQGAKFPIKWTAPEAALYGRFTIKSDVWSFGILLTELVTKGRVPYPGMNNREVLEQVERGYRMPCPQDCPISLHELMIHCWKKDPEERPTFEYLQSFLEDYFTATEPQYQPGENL

Nc1nccn2c([C@@H]3CCCN3C(=O)c3ccnc(Cl)n3)nc(-c3ccc(C(=O)Nc4nc5c(s4)CCCC5)cc3)c12 [Example 71, (S)-4-(8-amino-3-(1-(2-chloropyrimidine-4-carbonyl)pyrrolidin-2-yl)imidazo[1,5-a]pyrazin-1-yl)-N-(4,5,6,7-tetrahydrobenzo[d]thiazol-2-yl)benzamide]
EC50 (FynT enzyme): ≥ 1000 nM
EC50 (Btk enzyme (His-Btk)): 10 to 100 nM
EC50 Btk activity values (Btk enzyme (His-Btk); [1]): <100 nM
EC50 (Lck enzyme): ≥ 1 µM
EC50 (Src enzyme): ≥ 1000 nM
EC50 (Lyn enzyme): ≥ 1 µM

C=CC(=O)N1CCCC[C@H]1c1nc(-c2ccc(C(=O)Nc3cc(F)ccn3)cc2)c2c(N)nccn12 [Example 17, (S)-4-(3-(1-Acryloylpiperidin-2-yl)-8-aminoimidazo[1,5-a]pyrazin-1-yl)-N-(4-fluoropyridin-2-yl)benzamide]
EC50 (FynT enzyme): ≥ 1000 nM
EC50 (Btk enzyme (His-Btk); [2]): < 10 nM
EC50 (Lck enzyme): ≥ 1 µM
EC50 (Src enzyme): ≥ 1000 nM
EC50 (Lyn enzyme): ≥ 1 µM

Cc1cc(C(=O)Nc2ccccn2)ccc1-c1nc([C@@H]2CCCCN2C(=O)c2ccnc(Cl)n2)n2ccnc(N)c12 [Example 56, 4-(8-amino-3-((S)-1-(2-chloropyrimidine-4-carbonyl)piperidin-2-yl)imidazo[1,5-a]pyrazin-1-yl)-3-methyl-N-(pyridin-2-yl)benzamide]
EC50 (FynT enzyme): ≥ 1000 nM
EC50 (Btk enzyme (His-Btk)): 10 to 100 nM
EC50 Btk activity values (Btk enzyme (His-Btk); [1]): <100 nM
EC50 (Lck enzyme): ≥ 1 µM
EC50 (Src enzyme): ≥ 1000 nM
EC50 (Lyn enzyme): ≥ 1 µM

C=CC(=O)N1CCC[C@H]1c1nc(-c2ccc(C(=O)Nc3cc(F)ccn3)cc2)c2c(N)nccn12 [Example 42, (S)-4-(3-(1-acryloylpyrrolidin-2-yl)-8-aminoimidazo[1,5-a]pyrazin-1-yl)-N-(4-fluoropyridin-2-yl)benzamide]
EC50 (FynT enzyme): ≥ 1000 nM
EC50 (Btk enzyme (His-Btk); [2]): < 10 nM
EC50 (Lck enzyme): ≥ 1 µM
EC50 (Src enzyme): ≥ 1000 nM
EC50 (Lyn enzyme): ≥ 1 µM

C=CS(=O)(=O)N1CCCC[C@H]1c1nc(-c2ccc(C(=O)Nc3cc(C(F)(F)F)ccn3)cc2)c2c(N)nccn12 [Example 19, (S)-4-(8-Amino-3-(1-(vinylsulfonyl)piperidin-2-yl)imidazo[1,5-a]pyrazin-1-yl)-N-(4-(trifluoromethyl)pyridin-2-yl)benzamide]
EC50 (FynT enzyme): ≥ 1000 nM
EC50 (Btk enzyme (His-Btk); [2]): < 10 nM
EC50 (Lck enzyme): ≥ 1 µM
EC50 (Src enzyme): ≥ 1000 nM
EC50 (Lyn enzyme): ≥ 1 µM

CCc1cnc(NC(=O)c2ccc(-c3nc([C@@H]4CCCCN4C(=O)c4ccnc(Cl)n4)n4ccnc(N)c34)cc2)s1 [Example 118, (S)-4-(8-amino-3-(1-(2-chloropyrimidine-4-carbonyl)piperidin-2-yl)imidazo[1,5-a]pyrazin-1-yl)-N-(5-ethylthiazol-2-yl)benzamide]
EC50 (FynT enzyme): ≥ 1000 nM
EC50 (Btk enzyme (His-Btk); [2]): < 10 nM
EC50 (Lck enzyme): ≥ 1 µM
EC50 (Src enzyme): ≥ 1000 nM
EC50 (Lyn enzyme): ≥ 1 µM

Nc1nccn2c([C@@H]3CCCN3C(=O)c3cc(Cl)ncn3)nc(-c3ccc(C(=O)Nc4ccccn4)cc3)c12 [Example 33, (S)-4-(8-Amino-3-(1-(6-chloropyrimidine-4-carbonyl)pyrrolidin-2-yl)imidazo[1,5-a]pyrazin-1-yl)-N-(pyridin-2-yl)benzamide]
EC50 (FynT enzyme): ≥ 1000 nM
EC50 (Btk enzyme (His-Btk); [2]): < 10 nM
EC50 (Lck enzyme): ≥ 1 µM
EC50 (Src enzyme): ≥ 1000 nM
EC50 (Lyn enzyme): ≥ 1 µM

COC/C=C/C(=O)N1CCC[C@H]1c1nc(-c2ccc(C(=O)Nc3nc4c(s3)CCCC4)cc2)c2c(N)nccn12 [Example 82, (S,E)-4-(8-amino-3-(1-(4-methoxybut-2-enoyl)pyrrolidin-2-yl)imidazo[1,5-a]pyrazin-1-yl)-N-(4,5,6,7-tetrahydrobenzo[d]thiazol-2-yl)benzamide]
EC50 (FynT enzyme): ≥ 1000 nM
EC50 (Btk enzyme (His-Btk)): 10 to 100 nM
EC50 Btk activity values (Btk enzyme (His-Btk); [1]): <100 nM
EC50 (Lck enzyme): ≥ 1 µM
EC50 (Src enzyme): ≥ 1000 nM
EC50 (Lyn enzyme): ≥ 1 µM
